Here are results for 1 molecule from patent publication US9775335B2, “Durable coating-embedded pesticides with peel and stick mosquito treatment of containers” (University of Florida Research Foundation, Inc., priority 2013, dated 2017).

Common to all, as to assay type: in vivo
Test [1] deals with mosquito larvae. Briefly: Adult mosquito emergence, larvicide embedded in different coatings at different rates (FIG. 23). From the text:
Referring to FIG. 23, three different coating were used to embed the larvicide pyriproxyfen at 3 different rates. Coatings were applied to plastic containers that were filled with water, before mosquito larvae were transferred to these containers.
Several different formulae (polycrylic, Polyurethane and Latex paint) have been tested as coatings for the larvicide. All coatings performed well in preventing adult emergence from larvae added to water-holding containers coated internally with the coating-embedded larvicide even with 0.0001% of the active ingredient in the coating. Water treated with 0.01% rate is considered potable by the World Health Organization (WHO).

In test [2] the test system is mosquito larvae. Briefly: Mosquito larval mortality with coating-embedded larvicide, 0-week and 20-week aging (FIGS. 17-18). From the text: FIG. 17 is a graph of mosquito larval mortality after 0-week aging with the average live mosquitoes on the vertical axis versus exposure time on the horizontal axis.
FIG. 18 is a graph of mosquito larval mortality after 20-week aging with the average live mosquitoes on the vertical axis versus exposure time on the horizontal axis.
FIG. 17 is a graph of mosquito larval mortality over 0-week aging with amount of mosquitoes on the vertical axis versus exposure time on the horizontal axis.
FIG. 18 is a graph of mosquito larval mortality over 20-week aging on the vertical axis versus exposure time on the horizontal axis.
By embedding the larvicide pyriproxyfen in a coating, the mosquito killing action is protected from degradation for more than 20 weeks.

In test [3] the test system is mosquito larvae. In words: Adult mosquito emergence after high volume washing of coated containers (FIG. 24). The conditions noted are these: embedded in polycrylic and polyurethane coatings; washed with tap water 5×, 20×, 50× container volume, refilled with fresh water. As for the experimental part:
Referring to FIG. 24, two of the coating tested previously (refer to FIG. 23) were also tested for durability under high volume washing to see if they could stand under heavy rains. The coatings applied to plastic containers were subject to continuous washing with tap water for total volumes equivalent to 5×, 20×, and 50× the container volumes. After wards the containers were refilled with fresh water and mosquito larvae were added to the water. Adult emergence from the larvae was only observed in containers with coatings that contained no embedded larvicide. […] Coatings prevent larvicide washing off, with up to 50 times the volume of water as contained in the ovitrap. Most larvicides are applied to water and disappear when containers are emptied and re filled either naturally by rain action or by other means. The coating constantly treats new water put in containers with enough larvicide to preserve the mosquito-killing action. Both polycrylic and polyurethane protect the action of pyriproxyfen larvicide when containers coated with these materials are subjected to washing.

With `CC(COc1ccc(Oc2ccccc2)cc1)Oc1ccccn1` (centres unmarked) [pyriproxyfen, Pyriproxyfen], the adult mosquito emergence entry in the test with mosquito larvae [1] (embedded in three different coatings at 3 rates, applied to plastic containers filled with water) was “no emergence of mosquitoes even at low pyriproxyfen content”; with mosquito larvae [1] (water standard (no coating), 3 rates) it was “mosquito emergence was only inhibited at the high pyriproxyfen level”. In addition, the “time for which the mosquito killing action is protected from degradation” value with mosquito larvae [2] (larvicide embedded in a coating) is “more than 20 weeks”. In the test on mosquito larvae [2] (water in contact with coating-embedded larvicide or larvicide applied directly to container, new material or aged 20 weeks), the “mosquito larval mortality / prevention of mosquito emergence” value was “mosquito larvae start to die as they reach the pupal stage”. Besides, the “adult mosquito emergence after washing” value in the test with mosquito larvae [3] is listed as “prevented the emergence of adults”.
